For test [1], the system named is Arabidopsis thaliana (Col-0). Description: Arabidopsis root hair assay. Format: in vivo. To be noted: Col-0 seedlings on 1/2 MS medium, 1 μM; Supplementary Fig. 15; in µm (unit assumed). Here is the method:
(§1) For Arabidopsis root hair assay, Arabidopsis thaliana (Col-0) seeds were surface sterilized by using 1% NaClO solution for 60 s and 75% ethanol solution for 60 s, and then washed by sterilized distilled water five times. The sterilized seeds were sowed on 1/2 MS media (2.202 g/L Murashige and Skoog basal salts, 0.5 g/L MES, 10 g/L sucrose, and 10 g/L agar, pH 5.7) which contained indicated concentrations of compounds. 0.1% DMSO was used as a negative control. The plates were placed 4 days at 4 °C and then placed vertically under fluorescent white light (100–150 μmol m^−2 s^−1) with 16 h light and 8 h dark at 20 ± 1 °C for 15 days[17],[55]. The root hairs were imaged by OLYMPUS (U-HGLGPS), and the lengths were analyzed by ImageJ. The experiments were repeated three times. For Arabidopsis shoot branching assay: Col-0 and max4-1 seeds were used in this experiment. Seeds surface sterilization was sterilized as described above. The Arabidopsis seedlings were placed on top of the cut black microcentrifuge tubes filled with 1/2 MS. The tubes were placed 4 days at 4 °C and then moved to fluorescent white light (100–150 μmol m^−2 s^−1) with 16 h light and 8 h dark at 20 ± 1 °C for 7 days[26]. The germinated seedlings were grown on hydroponic culture solutions (containing indicated concentrations of 4a, (R)- and (S)-4a), with the solution containing 0.01% DMSO as the negative control. The solutions were renewed every week. After 4 weeks, the numbers of rosette axillaries were analyzed.
type Arabidopsis. a, Representative primary root segments of Col-0 seedlings growing on 1/2 MS
medium with or without 1 μM tested chemicals. Scale bar, […]. b, The average length of root
hair is presented as means ± SD (n = 3 biologically independent experiments).
(1 picture or pasted object on this page, not shown here)

Another test concerns max4-1. Description: Arabidopsis shoot branching assay. Format: in vivo, Arabidopsis thaliana. To be noted: max4-1, 1 μM; Fig. 4c source data. Here is the method:
as §1

Test [2] has as its system ShHTL7-ShMAX2 interaction. Description: Yeast two-hybrid assay ShHTL7-ShMAX2. Format: cell-based, Striga hermonthica. As for the experimental part:
(§2) To construct plasmids for yeast two-hybrid assays, the CDS of ShHTL7 and AtD14 were cloned into yeast expression vector pBrigde to generate BD-ShHTL7 and BD-AtD14, and the CDS of ShMAX2, AtMAX2, SMAX1 were cloned into pGADT7 to make Gal4 DNA activation domain (AD) constructs, respectively. Primers used for yeast expression vector construction are listed in Supplementary Table 6. Yeast two-hybrid assays were performed using the Yeastmaker Yeast Transformation System 2 (Clontech). In brief, Yeast AH109 cells were co-transformed with specific bait and prey constructs and coated on selective growth medium SD/-Leu-Trp for 3 days at 30 °C, pick the positive constructs into liquid selective growth medium SD/-Leu-Trp shaking for 36 h at 30 °C. Washed yeast cells three times and diluted, made sure OD600 reached 2.5, then serial 10-fold dilutions of yeast cultures were spotted onto selective growth mediums that were supplemented with different concentrations of rac-GR24 and tested molecules, respectively. All yeast transformants were grown on a selective growth medium at 30 °C for 3 days.

For another test, the system named is ShHTL7-SMAX1 interaction. Description: Yeast two-hybrid assay ShHTL7-SMAX1. Format: cell-based, Striga hermonthica. Here is the method:
as §2

For another test, the target named is ShHTL7 (Striga hermonthica, UniProt A0A0M3PNA2). Description: Mass spectrometric analysis of covalent modification of ShHTL7. Format: biochemical. As to conditions: for mass increase of compound-treated ShHTL7 protein: Q-TOF MS of full-length protein, modification on His246; for covalent modification of ShHTL7: MS of compound-treated ShHTL7. An excerpt: This was consistent with the hydrolysis of natural and synthetic SLs, in which, the (2′R)-isomers are more prone to hydrolysis by ShHTL7 than the (2′S)-isomers[26],[40]. […] Based on the above observations, we inferred that (S)-4a may have similar biochemical properties as 2′R-configured SLs. We then examined whether (S)-4a binding, just as for rac-GR24, would result in a covalently linked molecule in ShHTL7 by using Q-TOF mass spectrometry (SYNAPT-G2-Si, Waters company) analysis. […] For (R)-4a and 4g, a weak peak (increase of 95 Da or 94 Da) of similar modification was found, respectively (Fig. 3). A similar modification was not observed in 4h and 4i treated samples (Supplementary Fig. 12b, c). To furtherly identify the specific modification of the increased mass of 94 Da or 95 Da, we incubated (R)-4a, (S)-4a, and 4g with ShHTL7, followed by gel digestion and MS/MS analysis. […] No covalently linked molecule presence was identified in 4h treated ShHTL7 (Supplementary Fig. 12b). We assume that this is due to the fact that the N-CH3 D-lactam modified His246 is more reactive, resulting in quick decomposition of the intermediate.
Sequence of ShHTL7 (A0A0M3PNA2 entry or part of it): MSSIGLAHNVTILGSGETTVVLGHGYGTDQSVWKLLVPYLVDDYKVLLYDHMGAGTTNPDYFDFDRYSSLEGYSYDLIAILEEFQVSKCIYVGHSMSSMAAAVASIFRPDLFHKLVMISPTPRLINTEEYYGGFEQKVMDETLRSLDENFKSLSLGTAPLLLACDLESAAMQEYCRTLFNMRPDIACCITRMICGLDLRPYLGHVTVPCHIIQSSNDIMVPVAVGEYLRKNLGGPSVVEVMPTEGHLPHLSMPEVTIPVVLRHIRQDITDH
For LC-MS analysis: a 200 μL reaction solution (100 mM HEPES, 150 mM NaCl, pH 7.0) containing 10, or 400 μM of tested samples 4a, (R)- and (S)-4a, and 4g-i, and 100 μg of recombinant ShHTL7 or its mutants was incubated at 25 °C for 30 min. Subsequently, the solution was filtered and analyzed by a nanoACQUITY UPLC system, which was directly interfaced with an SYNAPT-G2-Si mass spectrometer produced by Waters Company. For LC-MS/MS analysis, the above chemicals treated ShHTL7 reaction solution was subjected to the SDS-PAGE analysis. The corresponding protein band around 30 KDa was excised, respectively, then digested with trypsin (Promega) in NH4HCO3 solution (50 mM) at 37 °C for 24 h[23],[26]–[28]. The covalent modification of C5H5O2/C6H6O on the peptide was analyzed by a Thermo-Dionex Ultimate 3000 HPLC system, which was directly interfaced with a Thermo Orbitrap Fusion Lumos mass spectrometer. MS-MS spectra are generated by pLabel software[53],[54].

Entries after “also recorded” stand apart in the source; their conditions may differ.

As for `CC1=C[C@H](O/C=C2/C(=O)O[C@@H]3c4ccccc4C[C@H]23)OC1=O` (racemic) [rac-GR24, reference compound], in test [1], the “average length of root hair, source data average” value (shortened to “average length of root hair”) came out at 474.342.
As to `CC1=CC(OC(=O)N2CCN(C(=O)COc3ccc(Br)cc3C)CC2)OC1=O` (centres unmarked) [4a], in the test with max4-1, the “No. of axillary shoots, source data average” value (“No. of axillary shoots” for short) stood at 3.5. In addition, the “induction of ShHTL7-ShMAX2 interaction (Y2H)” value in test [2] (0.01 μM (10 nM)) is “could still promote the ShHTL7-ShMAX2 interaction”; in test [2] (1 μM) it was “strongly induce the interaction”. Moreover, in test [1], the “average length of root hair” value turned out to be 163.912. Besides, the “induction of ShHTL7-SMAX1 interaction (Y2H)” value in the test on ShHTL7-SMAX1 interaction (1 μM) is “strongly induce the interaction”.
`CC1=CC(OC(=O)N2CCN(C(=O)COc3ccc(Br)cc3C)CC2)CC1=O` (centres unmarked) [4g]: the “mass increase of compound-treated ShHTL7 protein” value (“mass increase” for short) at ShHTL7 is 94 Da. Also, the “induction of ShHTL7-SMAX1 interaction (Y2H)” value with ShHTL7-SMAX1 interaction (200 μM) is given as “only weak ligand-induced interactions”.
In the case of `CC1=CC(OC(=O)N2CCN(C(=O)COc3ccc(Br)cc3C)CC2)N(C)C1=O` (centres unmarked) [4h], the “covalent modification of ShHTL7” value on ShHTL7 is “not observed”.
Consider `CC1=CC(CC(=O)N2CCN(C(=O)COc3ccc(Br)cc3C)CC2)OC1=O` (centres unmarked) [4i], for which the “covalent modification of ShHTL7” value at ShHTL7 is listed as “not observed”. The “induction of ShHTL7-ShMAX2 interaction (Y2H)” value in test [2] (200 μM) is “almost no ligand-induced interactions were observed”. In addition, the “induction of ShHTL7-SMAX1 interaction (Y2H)” value in the test with ShHTL7-SMAX1 interaction (200 μM) was “almost no ligand-induced interactions were observed”.
In the case of `CC1=C[C@@H](OC(=O)N2CCN(C(=O)COc3ccc(Br)cc3C)CC2)OC1=O` [(R)-4a], the “No. of axillary shoots” value in the test with max4-1 is 3.667. For the same molecule, the “mass increase” value at ShHTL7 is reported as 95 Da. Also, the “average length of root hair” value in test [1] worked out at 172.727. For the same molecule, the “induction of ShHTL7-SMAX1 interaction (Y2H)” value is listed as “did induce the interaction” with ShHTL7-SMAX1 interaction (200 μM); “no ShHTL7-SMAX1 or ShHTL7-AtMAX2 interactions were detected” in the test on ShHTL7-SMAX1 interaction (1 and 5 μM).
On to `CC1=C[C@H](OC(=O)N2CCN(C(=O)COc3ccc(Br)cc3C)CC2)OC1=O` [(S)-4a], for which, in the test with max4-1, the “No. of axillary shoots” value stood at 2.6. The “mass increase” value at ShHTL7 stood at 94 Da. Also, the “induction of ShHTL7-ShMAX2 interaction (Y2H)” value is on record as “could still promote the ShHTL7-ShMAX2 interaction; also recorded: promoted ShHTL7-ShMAX2 interaction” in test [2] (0.01 μM (10 nM)) and “strongly induce the interaction” in test [2] (1 μM). The “average length of root hair” value in test [1] was 211.816. For the same molecule, the “induction of ShHTL7-SMAX1 interaction (Y2H)” value in the test on ShHTL7-SMAX1 interaction (1 μM) was “strongly induce the interaction”.

The record behind these values is article PMC9271048, “Probing strigolactone perception mechanisms with rationally designed small-molecule agonists stimulating germination of root parasitic weeds” (Nature Communications, 2022).
